Source: PubChem BioAssay AID2060619 (Molecular Pharmacology Branch, DTP, NCI, 2025)

Test system: 323965-272-R-J2-PDC complex spheroid viability
Test: Anticancer human tumor 323965-272-R-J2-PDC patient-derived pancreatic carcinoma cell line growth inhibition [CLK]
Settings: for IC50: curve of first compound; for viability, T/C: stronger effect = lower value
Text: A high-throughput screen of multi-cell type tumor spheroids was designed to identify active combinations of […] and targeted small molecules. Complex spheroids include a stromal component modeled by human endothelial cells (HUVEC) and fibroblasts modeled by human mesenchymal stem cells (MSCs). The concentration ranges selected for each drug and investigational agent were based upon clinically achievable concentrations if the clinical Cmax of the agent was known.
Compounds. The drugs and investigational agents: cirtuvivint (SM08502; NSC835563), CC-671 (NSC850746), vemurafenib (NSC761431), tapotoclax (NSC804041), sotorasib (NSC818433), adagrasib (NSC831453), MRTX-1133 (NSC836407), BAY2416964 (NSC825713), copanlisib (NSC816437), inavolisib (NSC800729), abemaciclib (NSC768073), osimertinib (NSC779217), entinostat (NSC756642), eltanexor (KPT-8602, NSC794443), venetoclax (NSC766270), ceralasertib (NSC777638), bortezomib (NSC756655), olaparib (NSC753686), talazoparib (NSC767125), alisertib (NSC759677), peposertib (NSC802822), gemcitabine (NSC613327), 5-fluorouracil (NSC19893), SN-38 (NSC673596), oxaliplatin (NSC266046), paclitaxel (NSC125973), and doxorubicin (NSC123127), were obtained from the National Cancer Institute (NCI) Developmental Therapeutics Program Chemical Repository. The FDA-approved anticancer drug set is available from the Developmental Therapeutics Program at https://dtp.cancer.gov/organization/dscb/obtaining/available plates.htm. […] The stock solutions were prepared in dimethyl sulfoxide (DMSO, Sigma-Aldrich, St. Louis, MO, cat. D2650), except for the platinum complexes which were prepared in saline (Quality Biological, Gaithersburg, MD, cat. 114-055-101), at 800-fold the tested concentration and stored at -70 degrees C prior to their use. All drugs and investigational agents were tested over a range starting from a high concentration at or near the clinical Cmax and decreasing in half-log increments. If the clinical Cmax for an agent had not been determined, the highest concentration tested was 10 microM.
Cell Culture. All cells were maintained in an incubator at 37 degrees C and 5% CO2 with 95% humidity. The PDC lines were cultured according to standard operating procedures established by the NCI PDMR. Briefly, all PDCs were thawed and cultured in Matrigel-coated flasks prepared with a working solution of 1X Ham's F-12 nutrient mix, without supplementation (Invitrogen, Waltham, MA, cat. 11765054), 100 U/mL penicillin-streptomycin (Invitrogen, cat. 15140122), and 2.5% Matrigel (Corning Inc., Corning, NY, cat. 354248) for the first three passages. The 947758-054-R-J2-PDC line was cultured in 6B/Colon 1A media, which includes advanced DMEM/F-12 (Thermo Fisher Scientific, cat. 12634028), 10 mM HEPES (Thermo Fisher Scientific, cat. 15630080), 1X GlutaMAX supplement (Thermo Fisher Scientific, cat. 35050061), 0.1 mg/mL primocin (InvivoGen, cat. ant-pm-2), 10% defined fetal bovine serum, heat inactivated (HyClone Laboratories Inc., cat. SH30070.03HI), 1.25 mM N-Acetyl-L-cysteine (Sigma-Aldrich, cat. A9165), 10 mM nicotinamide (Sigma-Aldrich, cat. N0636), 1X B-27 supplement (Thermo Fisher Scientific, cat. 17504044), 1X N-2 supplement (Thermo Fisher Scientific, cat. 17502048), and 10 microM Y-27632 dihydrochloride (Tocris Bioscience, cat. 1254). The 876862-298-R-J1-PDC was cultured in 6E media, which includes all 6B/Colon 1A media components plus 50% L-WRN conditioned media (ATCC, cat. CRL-3276), 50 ng/mL recombinant human EGF recombinant protein (hEGF; Thermo Fisher Scientific, cat. PHG0311), 10 ng/mL recombinant human fibroblast growth factor 10 (hGFG-10; PeproTech, cat. 100-26), 1 ng/mL recombinant human fibroblast growth factor 2 (hFGF-2; PeproTech, cat. 100-18B), and 1 µM prostaglandin E2 (PGE2; Tocris, cat. 2296). The 227483-062-R1-J1-PDC line was cultured in Panc media, containing all 6E components except hFGF-2, with the addition of 500 nM SB-431542 (Selleckchem, cat. S1067) and 10 nM gastrin (Tocris, cat. 3006). […]

[1] = second compound 0.0316 µM, first compound 0.0316 µM
[2] = second compound 0.0316 µM, first compound 0.1 µM
[3] = second compound 0.0316 µM, first compound 0.316 µM
[4] = second compound 0.0316 µM, first compound 1 µM
[5] = second compound 0.0316 µM, first compound 3.16 µM
[6] = second compound 0.0316 µM, first compound 10 µM
[7] = second compound 0.1 µM, first compound 0.0316 µM
[8] = second compound 0.1 µM, first compound 0.1 µM
[9] = second compound 0.1 µM, first compound 0.316 µM
[10] = second compound 0.1 µM, first compound 1 µM
[11] = second compound 0.1 µM, first compound 3.16 µM
[12] = second compound 0.1 µM, first compound 10 µM
[13] = second compound 0.316 µM, first compound 0.0316 µM
[14] = second compound 0.316 µM, first compound 0.1 µM
[15] = second compound 0.316 µM, first compound 0.316 µM
[16] = second compound 0.316 µM, first compound 1 µM
[17] = second compound 0.316 µM, first compound 3.16 µM
[18] = second compound 0.316 µM, first compound 10 µM
[19] = second compound 1 µM, first compound 0.0316 µM
[20] = second compound 1 µM, first compound 0.1 µM
[21] = second compound 1 µM, first compound 0.316 µM
[22] = second compound 1 µM, first compound 1 µM
[23] = second compound 1 µM, first compound 3.16 µM
[24] = second compound 1 µM, first compound 10 µM
[25] = second compound 3.16 µM, first compound 0.0316 µM
[26] = second compound 3.16 µM, first compound 0.1 µM
[27] = second compound 3.16 µM, first compound 0.316 µM
[28] = second compound 3.16 µM, first compound 1 µM
[29] = second compound 3.16 µM, first compound 3.16 µM
[30] = second compound 3.16 µM, first compound 10 µM
[31] = second compound 10 µM, first compound 0.0316 µM
[32] = second compound 10 µM, first compound 0.1 µM
[33] = second compound 10 µM, first compound 0.316 µM
[34] = second compound 10 µM, first compound 1 µM
[35] = second compound 10 µM, first compound 3.16 µM
[36] = second compound 10 µM, first compound 10 µM
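Note: spheroids exposed to agents for seven days before readout.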
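Throughout, for viability, T/C: percent of DMSO vehicle control wells so 100% = untreated growth.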

## C#Cc1c(F)ccc2cc(O)cc(-c3ncc4c(N5CC6CCC(C5)N6)nc(OCC56CCCN5CC(F)C6)nc4c3F)c12 (stereo unspecified) + CN1CCN(c2cc(C(=O)Nc3cc4cc(-c5cnn(C)c5)ccc4cn3)ccn2)CC1
Second compound 0.0316 µM
  IC50: > 10000 nM
Second compound 0.1 µM
  IC50: 3050 nM
Second compound 0.316 µM
  IC50: < 31.6 nM
Second compound 1 µM
  IC50: < 31.6 nM
Second compound 3.16 µM
  IC50: < 31.6 nM
Second compound 10 µM
  IC50: < 31.6 nM
[1]
  viability, T/C: 101%
[2]
  viability, T/C: 101%
[3]
  viability, T/C: 101%
[4]
  viability, T/C: 95.8%
[5]
  viability, T/C: 67.1%
[6]
  viability, T/C: 50.9%
[7]
  viability, T/C: 68.8%
[8]
  viability, T/C: 73.2%
[9]
  viability, T/C: 71.1%
[10]
  viability, T/C: 63.3%
[11]
  viability, T/C: 49.9%
[12]
  viability, T/C: 42.6%
[13]
  viability, T/C: 28.4%
[14]
  viability, T/C: 25.6%
[15]
  viability, T/C: 24.8%
[16]
  viability, T/C: 22.9%
[17]
  viability, T/C: 17.8%
[18]
  viability, T/C: 15.1%
[19]
  viability, T/C: 3.55%
[20]
  viability, T/C: 3.52%
[21]
  viability, T/C: 3.35%
[22]
  viability, T/C: 3.07%
[23]
  viability, T/C: 2.52%
[24]
  viability, T/C: 2.87%
[25]
  viability, T/C: 3.72%
[26]
  viability, T/C: 4.19%
[27]
  viability, T/C: 3.39%
[28]
  viability, T/C: 3.07%
[29]
  viability, T/C: 3.51%
[30]
  viability, T/C: 5.09%
[31]
  viability, T/C: 4.24%
[32]
  viability, T/C: 4.08%
[33]
  viability, T/C: 5.09%
[34]
  viability, T/C: 3.16%
[35]
  viability, T/C: 3.48%
[36]
  viability, T/C: 3.19%

## C=C(F)C(=O)N1CCN(c2nc(OCC3CCCN3C)nc3c2CCN(c2cccc4cccc(Cl)c24)C3)CC1CC#N (stereo unspecified) + CN1CCN(c2cc(C(=O)Nc3cc4cc(-c5cnn(C)c5)ccc4cn3)ccn2)CC1
Second compound 0.0316 µM
  IC50: > 10000 nM
Second compound 0.1 µM
  IC50: 31.6 nM
Second compound 0.316 µM
  IC50: < 31.6 nM
Second compound 1 µM
  IC50: < 31.6 nM
Second compound 3.16 µM
  IC50: < 31.6 nM
Second compound 10 µM
  IC50: < 31.6 nM
[1]
  viability, T/C: 59%
[2]
  viability, T/C: 56.5%
[3]
  viability, T/C: 48.5%
[4]
  viability, T/C: 74.6%
[5]
  viability, T/C: 84.4%
[6]
  viability, T/C: 29.1%
[7]
  viability, T/C: 45.1%
[8]
  viability, T/C: 44.3%
[9]
  viability, T/C: 38%
[10]
  viability, T/C: 44.3%
[11]
  viability, T/C: 58.5%
[12]
  viability, T/C: 25.3%
[13]
  viability, T/C: 15.6%
[14]
  viability, T/C: 14.8%
[15]
  viability, T/C: 14.6%
[16]
  viability, T/C: 15.5%
[17]
  viability, T/C: 13.2%
[18]
  viability, T/C: 5.86%
[19]
  viability, T/C: 2.38%
[20]
  viability, T/C: 2.52%
[21]
  viability, T/C: 2.56%
[22]
  viability, T/C: 2.45%
[23]
  viability, T/C: 1.97%
[24]
  viability, T/C: 0.73%
[25]
  viability, T/C: 2.89%
[26]
  viability, T/C: 2.94%
[27]
  viability, T/C: 2.9%
[28]
  viability, T/C: 2.86%
[29]
  viability, T/C: 4.1%
[30]
  viability, T/C: 0.62%
[31]
  viability, T/C: 3.59%
[32]
  viability, T/C: 3.43%
[33]
  viability, T/C: 2.46%
[34]
  viability, T/C: 2.58%
[35]
  viability, T/C: 3.56%
[36]
  viability, T/C: 0.3%

## CC(CO)NC(=O)c1cc(-c2ccc(Cl)cc2)nn(-c2cnn(C)c2)c1=O (stereo unspecified) + CN1CCN(c2cc(C(=O)Nc3cc4cc(-c5cnn(C)c5)ccc4cn3)ccn2)CC1
Second compound 0.0316 µM
  IC50: > 10000 nM
Second compound 0.1 µM
  IC50: > 10000 nM
Second compound 0.316 µM
  IC50: < 31.6 nM
Second compound 1 µM
  IC50: < 31.6 nM
Second compound 3.16 µM
  IC50: < 31.6 nM
Second compound 10 µM
  IC50: < 31.6 nM
[1]
  viability, T/C: 97.3%
[2]
  viability, T/C: 102%
[3]
  viability, T/C: 103%
[4]
  viability, T/C: 87.4%
[5]
  viability, T/C: 112%
[6]
  viability, T/C: 113%
[7]
  viability, T/C: 68%
[8]
  viability, T/C: 80.5%
[9]
  viability, T/C: 83.1%
[10]
  viability, T/C: 72.5%
[11]
  viability, T/C: 76%
[12]
  viability, T/C: 89.5%
[13]
  viability, T/C: 25.8%
[14]
  viability, T/C: 27.2%
[15]
  viability, T/C: 25%
[16]
  viability, T/C: 22.3%
[17]
  viability, T/C: 28.2%
[18]
  viability, T/C: 32.8%
[19]
  viability, T/C: 3.75%
[20]
  viability, T/C: 3.59%
[21]
  viability, T/C: 4.21%
[22]
  viability, T/C: 3.61%
[23]
  viability, T/C: 3.03%
[24]
  viability, T/C: 3.2%
[25]
  viability, T/C: 4.17%
[26]
  viability, T/C: 3.62%
[27]
  viability, T/C: 3.4%
[28]
  viability, T/C: 3.82%
[29]
  viability, T/C: 4.87%
[30]
  viability, T/C: 4.3%
[31]
  viability, T/C: 4.55%
[32]
  viability, T/C: 5.29%
[33]
  viability, T/C: 4.22%
[34]
  viability, T/C: 3.24%
[35]
  viability, T/C: 3.64%
[36]
  viability, T/C: 3.17%
